Measured values as given in patent publication US10905704B2, “Agents and methods using thereof for the prevention and treatment of stem cell muscle disorders” (ECOLE POLYTECHNIQUE FEDERALE DE LAUSANNE (EPFL), priority 2015, dated 2021).

Columns and labels:
MuSCs [1] = assay: MuSCs transplantation from NR-treated aged donors into Mdx mice; type: in vivo; conditions: MuSCs from NR-treated aged donors vs controls, Mdx recipients, 4 weeks
Procedure: MuSCs transplantation. 5,000-8,000 double-sorted MuSCs isolated from NR or normal chow diet C57B/6J mice were resuspended in 10 μl of F10 media with 20% FBS and injected directly into cardiotoxin (CTX) pre-injured tibialis anterior (TA) muscle of Mdx mice 24hrs after the injury. The CTX pre-injury was performed as described above. Recipient mice were sacrificed 4 weeks after transplantation, TA muscle were harvested and prepared for cryosection.
(§1) Histology. TA muscles were harvested from anaesthetized mice and immediately frozen in Tissue-TEK® OCT compound (PST). 8-μm cryosections were collected and fixed with 4% paraformaldehyde, which are either stained with haematoxylin/eosin (HE) or antibodies. For immunostainings, heat activated antigen retrieval was performed in pH 6.0 citrate buffer for 10 min at 65° C. After washing with PBS-0.1% tween 20 (PBST), the sections were blocked with 10% affinipure Fab goat anti mouse IgG (Jackson Immunoresearch) in PBST for 60 min and PBST containing 2% BSA and 5% goat serum for 30 min at room temperature. Primary antibodies were then applied over night at 4° C. The following antibodies were used: anti-eMHC (Developmental Studies Hybridoma Bank, DSHB, University of Iowa), anti-Pax7 (DSHB, University of Iowa), anti-Laminin (Sigma). Subsequently, the slides were washed in PBST and incubated with appropriate secondary antibodies and labeling dyes. […]

MuSCs [2] = assay: Senescence and apoptosis marker staining of MuSCs from NR-treated mice (γH2AX, β-galactosidase, cleaved CASP3); type: cell-based, C57BL/6J mice
Procedure: Histology. TA muscles were harvested and the immunestaining was performed as described in Example 2. The following antibodies were used: anti-γH2AX […] (Millipore), anti-activated-caspase3 (Cell signaling). Secondary antibodies were coupled to Alexa-488 or Alexa-568 fluorochromes (Life technology), and nuclei were stained with DAPI (Invitrogen). β-galactosidase assay. MuSCs were sorted directly and cultured primary MuSCs were grown on 8 chamber slides (Thermo Scientific). Senescence-associated β-galactosidase activity was detected using the senescence β-galactosidase staining kit (Cell signaling), according to manufacturer's instructions. Cell culture and treatments. FACS sorted MuSCs were grown on a 10% Matrigel (Corning)-coated dish and flasks with Fams F-10 media (Gibco), supplemented with 20% fetal bovine serum (FBS, Gibco), 2.5 ng/ml basic fibroblast growth factor (bFGF, Sigma) and penicillin/streptomycin (1×, Gibco). Dishes were coated with 10% growth factor-free Matrigel solution on ice for 7 min then transferred to a 37° C. cell culture incubator overnight before use. Cells were grown for three generations in vitro before experiments with cells plated and passaged at 10^3 cells/ml and 50% confluencies, respectively. C2C12 mouse myoblasts were grown in DMEM (4.5 g/1 glucose, Gibco) supplemented with 10% FBS and penicillin/streptomycin (1×, Gibco).

MuSCs [3] = assay: Gene expression analyses (qPCR) in freshly isolated MuSCs of NR-treated mice; type: cell-based, C57BL/6J mice
Procedure: Gene expression analyses. Total RNA was extracted from MuSCs by sorting cells directly into TriPure RNA isolation reagent (Roche) or from cultured C2C12 myoblasts using TriPure reagent according to the product manual. Total RNA was transcribed to cDNA using QuantiTect Reverse Transcription Kit (Qiagen). Expression of selected genes was analyzed using the LightCycler480 system (Roche) and LightCycler® 480 SYBR Green I Master reagent (Roche). The acidic ribosomal protein 36b4 gene (ribosomal protein, large, P0, Rp1p0) was used as housekeeping reference. FACS based muscle stem cell isolation. Gastrocnemius, soleus, quadriceps, and tibialis anterior muscles from both limbs were excised and transferred into PBS on ice. All muscles were trimmed, minced and digested with 0.1 mg/ml of type II collagenase (Sigma) in PBS for 15 min at 37° C. Samples were then centrifuged at 750 g for 5 min and further digested in 1 mg/ml of collagenase/dispase (Roche) for 30 mins at 37° C. Muscle slurries were sequentially filtered through 100, 70 and 40 μm cell strainers. The isolated cells were then washed in washing buffer (PBS+2.5% FBS) then resuspended in 200 μl of washing buffer and immediately stained with antibodies, including the MuSC markers CD31 (1:800, eBioscience, eFluor450 conjugated); CD34 (1:200, eBioscience, eFluor660 conjugated); CD45 (1:200, eBioscience, eFluor450 conjugated); CD11b (1:400, eBioscience, eFluor450 conjugated); Sca-1 (1:1000, eBioscience, PE-Cy7 conjugated); and α7 integrin (1:300, MBL) for 30 min at 4° C. Secondary staining was performed with a mixture of goat anti-mouse antibody (1:800, Life technologies, Alexa Fluor 488 conjugated) and propidium Iodide (PI, Sigma) for 15 min at 4° C. in the dark. Stained cells were analysed and sorted using the FACSAria II instrument (BD Biosciences). Debris and dead cells were excluded by forward scatter, side scatter and PI gating. Cells were sorted either directly on slides for immunostaining and into TriPure (Roche) reagent for RNA extraction.

muscle = assay: Cardiotoxin-induced muscle damage in NR-treated Mdx mice; type: in vivo
Procedure: Cardiotoxin-induced muscle damage. Animals were anesthetized using Isoflurane in oxygen from a precision vaporizer. 50 μl of 20 μM Naje mossambica mossambica cardiotoxin (Sigma) was injected intramuscularly cross the skin and directly into the tibialis anterior (TA) muscle. Mice were sacrificed at 7 and 14 days after injury. TA muscles were immediately embedded in Thermo Scientific™ Shandon™ Cryomatrix™ and frozen in isopentane, cooled in liquid nitrogen, for 2 mins before being transferred to dry ice and stored at −80° C.
as §1, with “(Sigma).” for “(Sigma). Subsequently, the slides were washed in PBST and incubated with appropriate secondary antibodies and labeling dyes.”

[4] = MuSCs from NR-treated mice cultured ex vivo for three generations
[5] = freshly isolated aged MuSCs, NR diet, FIG. 4H

NC(=O)c1ccc[n+]([C@@H]2O[C@H](CO)[C@@H](O)[C@H]2O)c1 [NR, nicotinamide riboside]
replenishment of MuSC compartment after transplantation (MuSCs [1]): more effectively replenished the MuSC compartment
myogenesis of dystrophin-positive myofibers after transplantation (MuSCs [1]; FIG. 3N): stimulated myogenesis of dystrophin-positive myo fibers
cleaved caspase-3 (CASP3) immunostaining (MuSCs [2]; [4]): reductions
γH2AX positive nuclei (MuSCs [2]; [4]): reductions
γH2AX positive nuclei (MuSCs [2]; freshly isolated MuSCs from aged mice, NR diet, FIG. 4A,B): staining was reduced
β-galactosidase staining (senescence) (MuSCs [2]; freshly sorted MuSCs from aged mice, NR diet): reduction of the nuclear damage response was confirmed
mitochondrial TCA and OXPHOS gene expression (MuSCs [3]; aged MuSCs, NR diet, FIG. 4I): largely rescued
expression of cell cycle related genes (MuSCs [3]; [5]): increasing the expression of cell cycle related genes
mRNA levels of CDKN1A and related senescence indicators (MuSCs [3]; [5]): significantly reduced
Phb1 and Phb2 expression (MuSCs [3]; young and aged MuSCs, NR 400 mg/kg/day 6 weeks, FIG. 5B): induced Phb1 and Phb2 expression
regenerated muscle fibers (eMyHC) (muscle; 7 days after CTX, FIG. 6F): increase in regenerated muscle fibers
CTX-induced muscle regeneration (H/E) (muscle; 7 days of recovery, FIG. 6L): muscle regeneration was improved
